The values that follow come from ChEMBL document CHEMBL1773066, “Design, synthesis, biological activity, and ADME properties of pyrazolo[3,4-d]pyrimidines active in hypoxic human leukemia cells: a lead optimization study” (J Med Chem, 2011).

Values after ≈ are worked out from the molar mass of the structure shown. Active and inactive are the calls of the source. The rule behind the calls is not given here. Bounds are passed on as bounds.

Data set [1] deals with T1, Signal transducer and activator of transcription 5A (Homo sapiens) (UniProt P42229).
T1 sequence (whole entry): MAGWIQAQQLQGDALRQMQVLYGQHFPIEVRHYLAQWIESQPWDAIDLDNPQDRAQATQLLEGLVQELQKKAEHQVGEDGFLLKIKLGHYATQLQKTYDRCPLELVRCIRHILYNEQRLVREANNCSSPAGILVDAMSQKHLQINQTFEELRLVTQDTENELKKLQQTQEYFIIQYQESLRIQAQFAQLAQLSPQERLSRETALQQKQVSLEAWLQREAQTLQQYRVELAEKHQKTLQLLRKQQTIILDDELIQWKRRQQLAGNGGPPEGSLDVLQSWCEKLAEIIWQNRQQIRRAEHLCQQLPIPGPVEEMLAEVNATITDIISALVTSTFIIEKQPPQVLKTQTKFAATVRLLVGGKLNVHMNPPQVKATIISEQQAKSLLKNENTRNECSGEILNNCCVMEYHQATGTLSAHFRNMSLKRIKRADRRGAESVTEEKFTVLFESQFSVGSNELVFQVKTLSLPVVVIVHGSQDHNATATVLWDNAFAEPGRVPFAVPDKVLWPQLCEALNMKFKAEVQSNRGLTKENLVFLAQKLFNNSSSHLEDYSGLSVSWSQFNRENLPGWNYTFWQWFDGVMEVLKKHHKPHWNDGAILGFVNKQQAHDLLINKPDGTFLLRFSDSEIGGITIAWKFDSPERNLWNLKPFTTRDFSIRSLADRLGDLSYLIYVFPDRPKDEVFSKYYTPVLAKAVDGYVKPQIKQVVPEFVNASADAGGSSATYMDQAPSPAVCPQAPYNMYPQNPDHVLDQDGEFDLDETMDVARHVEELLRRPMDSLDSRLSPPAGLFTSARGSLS
The data set is described as follows: Inhibition of STAT5 phosphorylation in human K562 cells under normoxic condition after 3 hrs by Western blotting. Format: cell-based. In general terms: Immunoblotting shows a protein as a band on a membrane.

The subject of data set [2] is K562. Kind of data set: cells. The conditions noted are these: Homo sapiens, K562, 72 h.
Description: Antiproliferative activity against human K562 cells under hypoxic condition after 72 hrs by using CyQUANT GR dye
For data set [3], the target named is T1, Signal transducer and activator of transcription 5A (Homo sapiens). Kind of data set: Inhibition of STAT5 phosphorylation in human KU812 cells under hypoxic condition after 3 hrs by Western blotting. The data set is classed as cell-based.
Data set [4] shares this target. Kind of data set: Inhibition of STAT5 phosphorylation in human K562 cells under hypoxic condition after 3 hrs by Western blotting. Format: cell-based.
Data set [5] has the same target. Kind of data set: Inhibition of STAT5 phosphorylation in human MEG-01 cells under normoxic condition after 3 hrs by Western blotting. Format: cell-based.
Data set [6] has the same target. Kind of data set: Inhibition of STAT5 phosphorylation in human KU812 cells under normoxic condition after 3 hrs by Western blotting. The data set is classed as cell-based.
The test system of data set [7] is K562. Kind of data set: cells. The conditions noted are these: Homo sapiens, K562, 72 h. The source holds these as a separate data set.
Description: Antiproliferative activity against human K562 cells under normoxic condition after 72 hrs by using CyQUANT GR dye
In data set [8] the target is T1, Signal transducer and activator of transcription 5A (Homo sapiens). The data set is described as follows: Inhibition of STAT5 phosphorylation in human MEG-01 cells under hypoxic condition after 3 hrs by Western blotting. Format: cell-based.
Data set [9] can be described thus: Apparent permeability of the compound at pH 7.4 by PAMPA assay. Format: ADME. On the technique in general: The PAMPA barrier holds no transporters, so it reflects passive diffusion.
Data set [10] relates to K562. The data set is described as follows: Induction of apoptosis in human K562 cells assessed as caspase-3 activity at 10 uM under normoxic condition after 72 hrs by fluorescence microplate reader. The data set is classed as functional, cell-based.
For data set [11], the system named is K562. The data set is described as follows: Induction of HIF1alpha expression in human K562 cells under hypoxic condition assessed as HIF1alpha accumulation after 3 hrs by Western blotting. Format: functional, cell-based.
Data set [12] relates to MEG-01. The data set is described as follows: cells. The conditions noted are these: Homo sapiens, MEG-01, 72 h.
Description: Antiproliferative activity against human MEG01 cells under normoxic condition after 72 hrs by using CyQUANT GR dye
Data set [13] addresses T2, Proto-oncogene tyrosine-protein kinase Src (Homo sapiens, UniProt P12931).
Description: (§1) Inhibition of human recombinant c-Src by filter-binding assay
The test system of data set [14] is K562. The data set is described as follows: Induction of apoptosis in human K562 cells assessed as caspase-3 activity at 10 uM under hypoxic condition after 72 hrs by fluorescence microplate reader. The data set is classed as functional, cell-based.
Data set [15] relates to K562. Kind of data set: Induction of apoptosis in human K562 cells assessed as caspase-3 mediated cleavage of PARP level at 10 uM after 72 hrs under hypoxic condition by immunoblot analysis. The data set is classed as functional, cell-based.
Data set [16] can be described thus: Metabolic stability in human liver microsomes assessed as parent compound remaining after 60 mins by LC-MS analysis. Format: ADME, Microsome. The note with it: read-out: Stability.
Data set [17] is described as follows: cells. The note with it: Homo sapiens, KU812, 72 h.
Description: Antiproliferative activity against human KU812 cells under hypoxic condition after 72 hrs by using CyQUANT GR dye
Data set [18] is described as follows: cells. The conditions noted are these: Homo sapiens, KU812, 72 h. The source holds these as a separate data set.
Description: Antiproliferative activity against human KU812 cells under normoxic condition after 72 hrs by using CyQUANT GR dye
A short description of data set [19]: Solubility of the compound in water at pH 7.4. Format: physicochemical.
Data set [20] has as its target Tyrosine-protein kinase ABL1 (Homo sapiens, UniProt P00519).
Description: Inhibition of human recombinant c-Abl by filter-binding assay
Data set [21] has as its system MEG-01. The data set is described as follows: cells. The note with it: Homo sapiens, MEG-01, 72 h. The source holds these as a separate data set.
Description: Antiproliferative activity against human MEG01 cells under hypoxic condition after 72 hrs by using CyQUANT GR dye
Data set [22] has as its system K562. Kind of data set: Inhibition of carbonic anhydrase 9 mRNA expression in human K562 cells under normoxic condition at 10 uM after 72 hrs by quantitative RT-PCR analysis. The data set is classed as functional, cell-based.
In data set [23] the test system is K562. Kind of data set: Inhibition of carbonic anhydrase 9 mRNA expression in human K562 cells under hypoxic condition at 10 uM after 72 hrs by quantitative RT-PCR analysis. The data set is classed as functional, cell-based.
A short description of data set [24]: Cytotoxicity against mouse BA/F3 cells expressing p210Bcr-Abl Y253F mutant. Format: functional. The conditions noted are these: BaF3, read-out: LD50 (the source's name).
Data set [25] is described as follows: Cytotoxicity against mouse BA/F3 cells expressing p210Bcr-Abl T315I mutant. The data set is classed as functional. The conditions noted are these: BaF3, read-out: LD50 (the source's name).
Data set [26] is described as follows: Cytotoxicity against mouse BA/F3 cells expressing p210Bcr-Abl E255K mutant. Format: functional. The note with it: BaF3, read-out: LD50 (the source's name).
The nature of data set [27]: Cytotoxicity against mouse BA/F3 cells expressing wild type p210Bcr-Abl. The conditions noted are these: BaF3, read-out: LD50 (the source's name). Format: functional.
The target of data set [28] is T2, Proto-oncogene tyrosine-protein kinase Src. This is another data set of the same source.
Description: as §1

The term IC50 denotes the concentration needed to halve the response being measured. Read a low IC50 as inhibition by little substance. In general, Papp refers to a coefficient for how fast a substance crosses the barrier. A word on the Ki: it is a dissociation constant, usually derived from enzyme kinetics or from competition with a known ligand. Higher therefore signals a looser hold on the target. As usually defined, the solubility is the concentration that dissolves in the medium under given conditions.

T2 sequence (P12931 2-536 limits assumed): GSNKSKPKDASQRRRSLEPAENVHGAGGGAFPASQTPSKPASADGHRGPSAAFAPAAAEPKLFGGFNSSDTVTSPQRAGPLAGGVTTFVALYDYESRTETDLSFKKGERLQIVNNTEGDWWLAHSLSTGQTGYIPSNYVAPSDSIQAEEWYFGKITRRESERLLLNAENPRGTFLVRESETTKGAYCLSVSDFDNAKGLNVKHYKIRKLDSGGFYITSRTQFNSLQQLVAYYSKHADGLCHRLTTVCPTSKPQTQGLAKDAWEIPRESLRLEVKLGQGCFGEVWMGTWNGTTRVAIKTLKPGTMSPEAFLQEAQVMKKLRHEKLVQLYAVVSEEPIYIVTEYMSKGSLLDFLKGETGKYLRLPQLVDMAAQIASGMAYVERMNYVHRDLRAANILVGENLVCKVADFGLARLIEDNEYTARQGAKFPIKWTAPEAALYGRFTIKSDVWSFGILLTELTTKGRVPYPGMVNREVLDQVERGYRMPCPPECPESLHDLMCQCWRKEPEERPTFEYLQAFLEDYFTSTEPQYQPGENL
Sequence of Tyrosine-protein kinase ABL1 (P00519 whole entry): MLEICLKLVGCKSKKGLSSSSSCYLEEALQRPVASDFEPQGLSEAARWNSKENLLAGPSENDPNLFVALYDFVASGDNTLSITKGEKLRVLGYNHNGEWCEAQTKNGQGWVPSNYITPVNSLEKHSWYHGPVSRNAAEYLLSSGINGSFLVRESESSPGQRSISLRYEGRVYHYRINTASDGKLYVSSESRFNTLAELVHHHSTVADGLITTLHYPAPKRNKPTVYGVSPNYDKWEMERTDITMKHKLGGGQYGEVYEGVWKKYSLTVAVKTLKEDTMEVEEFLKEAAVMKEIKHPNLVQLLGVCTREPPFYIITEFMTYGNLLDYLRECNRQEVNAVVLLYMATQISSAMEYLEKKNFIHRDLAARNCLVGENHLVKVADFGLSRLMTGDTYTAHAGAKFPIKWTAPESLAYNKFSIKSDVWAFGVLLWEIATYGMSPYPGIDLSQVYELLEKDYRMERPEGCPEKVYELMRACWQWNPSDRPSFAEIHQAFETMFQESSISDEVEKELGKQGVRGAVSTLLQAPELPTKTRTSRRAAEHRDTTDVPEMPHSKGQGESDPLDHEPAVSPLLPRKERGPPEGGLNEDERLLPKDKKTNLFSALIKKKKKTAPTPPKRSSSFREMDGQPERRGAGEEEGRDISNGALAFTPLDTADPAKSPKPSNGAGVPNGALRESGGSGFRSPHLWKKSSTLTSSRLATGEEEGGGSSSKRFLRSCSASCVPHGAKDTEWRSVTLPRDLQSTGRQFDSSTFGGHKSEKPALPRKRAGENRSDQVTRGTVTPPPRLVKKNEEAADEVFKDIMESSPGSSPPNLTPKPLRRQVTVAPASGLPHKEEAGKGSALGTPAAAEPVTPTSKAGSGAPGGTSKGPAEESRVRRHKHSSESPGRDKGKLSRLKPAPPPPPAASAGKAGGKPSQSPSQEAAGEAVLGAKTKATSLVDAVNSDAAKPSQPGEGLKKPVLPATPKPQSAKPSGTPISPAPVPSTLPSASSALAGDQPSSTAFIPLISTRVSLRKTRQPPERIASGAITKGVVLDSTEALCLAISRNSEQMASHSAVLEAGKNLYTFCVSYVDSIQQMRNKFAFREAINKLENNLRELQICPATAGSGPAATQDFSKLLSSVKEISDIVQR

Regarding `ClC(Cn1ncc2c(Nc3ccccc3)nc(SCCN3CCOCC3)nc21)c1ccccc1` (stereo not drawn), the inhibition result in data set [1], in data set [3], in [4], in [5], in data set [6] and in [8] was “Active” throughout. Besides, the IC50 was 4.7 µM in data set [2] and 2.2 µM in data set [7]. The Papp in data set [9] is 10 ×10⁻⁶ cm/s.
As for `Clc1cccc(Nc2nc(N3CCOCC3)nc3c2cnn3CC(Cl)c2ccccc2)c1` (stereo not drawn), the outcome in [10], in data set [14] and in data set [15] was Active. For the same compound, the outcome in data set [11] was inactive. In addition, the inhibition entry in data set [1], in data set [3], in [4], in data set [5], in data set [6] and in data set [8] was “Active” in each case. For the same compound, the inhibition entry in data set [22] and in data set [23] was “Active” throughout. The IC50 in data set [12] came out at 7.7 µM; in [2] it was 4.6 µM; in data set [17] it was 16.1 µM; in data set [18], 2.2 µM; in data set [21], 15 µM; in data set [7], 12.2 µM. Further, the results for the Ki in data set [13] and in data set [20] were 7.6 µM and 0.39 µM, respectively. Further, the remaining at 1 h in data set [16] stood at 90%. The same compound displayed a solubility in [19] of 0.13 µg/mL (≈ 0.277 µM). The Papp in data set [9] turned out to be 14.8 ×10⁻⁶ cm/s.
On to `CC(Cn1ncc2c(Nc3cccc(Cl)c3)ncnc21)c1ccccc1` (stereo not drawn), for which, in data set [16], the remaining at 1 h stood at 75%. For the same compound, the solubility in data set [19] was below 0.04 µg/mL. In addition, the Papp in data set [9] turned out to be 13.5 ×10⁻⁶ cm/s.
With `Clc1ccc(C(Cl)Cn2ncc3c(NCc4ccncc4)ncnc32)cc1` (stereo not drawn), in data set [11], the result was inactive. For the same compound, the inhibition result in data set [1], in data set [3], in data set [4], in data set [5], in [6] and in data set [8] was “Active” throughout. Further, the IC50 in data set [12] is 14.6 µM; in data set [2], 20.4 µM; in data set [17], above 100 µM; in data set [18], 10.1 µM; in [21], 43.5 µM; in [7], 12.7 µM. Also, the Ki is 3.9 µM in data set [13] and 0.66 µM in [20]. The remaining at 1 h in data set [16] was 90%. In addition, in data set [19], the concentration in solution (solubility) came to 12.3 µg/mL (≈ 30.8 µM). Moreover, the Papp in data set [9] stood at 5.4 ×10⁻⁶ cm/s.
With `OCCNc1nc(NCCc2ccccc2)c2cnn(/C=C\c3ccccc3)c2n1`, the IC50 in data set [12] came to 12.9 µM; in data set [2], 8.1 µM; in data set [21], 34 µM; in data set [7], 2.3 µM. Further, the results for the Ki in data set [13] and in [20] were 2.4 µM and 0.22 µM, respectively. Besides, the remaining at 1 h in data set [16] turned out to be 84%. For the same compound, the concentration in solution in data set [19] (solubility) was 0.4 µg/mL (≈ 0.999 µM). Besides, in data set [9], the Papp turned out to be 2.6 ×10⁻⁶ cm/s.
For `CS(=O)(=O)c1nc(NCc2ccccc2)c2cnn(CC(Cl)c3ccccc3)c2n1` (stereo not drawn), the IC50 in data set [12] is 41.4 µM; in [18], 36.1 µM; in data set [7], 35.8 µM.
With `ClC(Cn1ncc2c(NCc3ccccc3)nc(SCCN3CCOCC3)nc21)c1ccccc1` (stereo not drawn), the IC50 in [12] was 23.7 µM; in data set [2], 5.1 µM; in data set [21] it was 19.7 µM; in data set [7] it was 3.1 µM. Besides, the Ki in data set [13] was 2.9 µM; in [20], 0.09 µM. The remaining at 1 h in data set [16] came out at 95%. Moreover, the solubility in data set [19] is 1.2 µg/mL (≈ 2.36 µM). Further, the inhibition result in data set [3], in [5], in data set [6] and in data set [8] was “Active” throughout. The Papp in data set [9] is 9.1 ×10⁻⁶ cm/s.
Take `Fc1ccc(C(Cl)Cn2ncc3c(NCc4ccncc4)ncnc32)cc1` (stereo not drawn): the IC50 worked out at 37.4 µM in data set [12], 56.4 µM in data set [18] and 36.5 µM in data set [7].
For `Fc1ccc(CNc2ncnc3c2cnn3CC(Cl)c2ccc(Cl)cc2)cc1` (stereo not drawn), the result in data set [10], in [14] and in data set [15] was Active. The CC50 in [24], in data set [25], in [26] and in data set [27] was 0.7 µM throughout. Besides, the result in data set [11] was inactive. For the same compound, the inhibition result in data set [1], in data set [3], in data set [4], in data set [5], in data set [6] and in [8] was “Active” each time. Further, the IC50 in data set [12] is 6.2 µM; in data set [2] it was 2.8 µM; in [17], 13.3 µM; in data set [18], 8.1 µM; in data set [21], 6.1 µM; in data set [7], 9.2 µM. Further, the remaining at 1 h in [16] was found to be 94%. Further, the solubility in data set [19] is below 0.04 µg/mL.
As to `Clc1ccc(C(Cl)Cn2ncc3c(NCc4ccccn4)ncnc32)cc1` (stereo not drawn), the values for the IC50 in [12], in data set [18] and in data set [7] were 16.6 µM, 31.4 µM and 30.6 µM, respectively.
As for `Fc1ccc(CNc2ncnc3c2cnn3CC(Cl)c2ccc(F)cc2)cc1` (stereo not drawn), the remaining at 1 h in [16] was found to be 82%. Also, the solubility in data set [19] was below 0.04 µg/mL. The Papp in [9] was 11 ×10⁻⁶ cm/s.
In the case of `Clc1cccc(Nc2nc(SCCN3CCOCC3)nc3c2cnn3CC(Cl)c2ccccc2)c1` (stereo not drawn), the inhibition result in data set [1], in data set [3], in [4], in data set [5], in data set [6] and in data set [8] was “Active” throughout. Also, the IC50 in [12] was determined as 6.1 µM; in data set [7], 4.5 µM. Further, the remaining at 1 h in [16] came to 95%. In addition, the concentration in solution in data set [19] (solubility) came to 0.1 µg/mL (≈ 0.189 µM).
`Fc1ccc(C(Cl)Cn2ncc3c(NCc4ccccn4)ncnc32)cc1` (stereo not drawn): the IC50 stood at 23.8 µM in data set [12], 40.6 µM in [18] and 37.5 µM in data set [7].
For `ClC(Cn1ncc2c(NCCc3ccccc3)nc(SCCN3CCOCC3)nc21)c1ccccc1` (stereo not drawn), the Ki result in data set [28] is “Not Active”.
